Conditions: particle size by volume, laser light diffraction, dry dispersion
From the text: Particle size determination of Levonorgestrel
Equipment • Diffractometer of laser light, Mastersizer 3000 or equivalent • Micro analytical balance or semimicro
Weigh approximately 0.2-0.3g of the drug substance, and introduce to the dry accessory.
Dispersion Unit: MAZ3500 and cell (AD01)
Refraction index: 1.5/1.5 (red light/blue light)
Distribution Format: • Single mode • Enhanced sensitivity • Fine powder (activate)
Background run time: 10 s
Filter obscuration: 0.5-6%
Sampler settings: • Vibration feed rate: 50% • Dispersive air pressure: 2.5 bar

D10: 0.2 μm
D50: 1.0 μm
D90: 1.1 μm
Compound: C#C[C@]1(O)CC[C@H]2[C@@H]3CCC4=CC(=O)CC[C@@H]4[C@H]3CC[C@@]21CC [Ultra-micronized levonorgestel, Levonorgestrel]

Source: patent US20150258020A1, “CHEWABLE TABLETS COMPRISING LEVONORGESTREL” (priority 2014, published 2015)
